Measurements published in ChEMBL document CHEMBL3526017, “Predicting the drug interaction potential of AMG 853, a dual antagonist of the D-prostanoid and chemoattractant receptor-homologous molecule expressed on T helper 2 cells receptors” (Drug Metab Dispos, 2012).

How the values were obtained:
[1] = target: T1, Cytochrome P450 2B6 (Homo sapiens, UniProt P20813); assay: Inhibition of CYP2B6 in human liver microsomes using bupropion as substrate after 5 to 30 mins by LC-MS/MS analysis; type: ADME
T1 sequence (P20813 whole entry): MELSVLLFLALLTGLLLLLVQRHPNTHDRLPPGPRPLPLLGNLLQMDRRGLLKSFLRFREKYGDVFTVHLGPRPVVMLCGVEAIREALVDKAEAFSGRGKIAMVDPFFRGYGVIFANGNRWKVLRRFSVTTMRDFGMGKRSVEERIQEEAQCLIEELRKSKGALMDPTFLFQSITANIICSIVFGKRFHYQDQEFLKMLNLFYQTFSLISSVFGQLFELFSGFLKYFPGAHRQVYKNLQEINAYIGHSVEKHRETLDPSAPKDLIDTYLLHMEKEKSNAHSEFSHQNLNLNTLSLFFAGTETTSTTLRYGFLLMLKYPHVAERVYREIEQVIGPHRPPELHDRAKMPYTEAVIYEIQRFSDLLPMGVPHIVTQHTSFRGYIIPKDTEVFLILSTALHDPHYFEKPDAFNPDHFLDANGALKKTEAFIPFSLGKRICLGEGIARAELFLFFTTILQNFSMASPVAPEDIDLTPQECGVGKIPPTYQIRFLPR

[2] = target: T2, Cytochrome P450 3A4 (Homo sapiens, UniProt P08684); assay: Inhibition of CYP3A4 in human liver microsomes using testosterone as substrate after 5 to 30 mins by LC-MS/MS analysis; type: ADME
[3] = target: Cytochrome P450 2C9 (Homo sapiens, UniProt P11712); assay: Inhibition of CYP2C9 in human liver microsomes using diclofenac as substrate after 5 to 30 mins by LC-MS/MS analysis; type: ADME
[4] = target: Cytochrome P450 2E1 (Homo sapiens, UniProt P05181); assay: Inhibition of CYP2E1 in human liver microsomes using chlorzoxazone as substrate after 5 to 30 mins by LC-MS/MS analysis; type: ADME
[5] = target: Cytochrome P450 2C19 (Homo sapiens, UniProt P33261); assay: Inhibition of CYP2C19 in human liver microsomes using (S)-Mephenytoin as substrate after 5 to 30 mins by LC-MS/MS analysis; type: ADME
[6] = test system: CYP2C9; assay: Upregulation of CYP2C9 mRNA expression in human hepatocytes at 0.3 to 30 uM treated every 24 hrs for 2 days measured on day 5 relative to control; type: ADME, cell-based, Hepatocyte; settings: read-out: FC
[7] = target: Cytochrome P450 2D6 (Homo sapiens, UniProt P10635); assay: Inhibition of CYP2D6 in human liver microsomes using dextromethorphan as substrate after 5 to 30 mins by LC-MS/MS analysis; type: ADME
[8] = target: T3, Cytochrome P450 1A2 (Homo sapiens, UniProt P05177); assay: Inhibition of CYP1A2 in human liver microsomes using phenacetin as substrate after 5 to 30 mins by LC-MS/MS analysis; type: ADME
T3 sequence (P05177 whole entry): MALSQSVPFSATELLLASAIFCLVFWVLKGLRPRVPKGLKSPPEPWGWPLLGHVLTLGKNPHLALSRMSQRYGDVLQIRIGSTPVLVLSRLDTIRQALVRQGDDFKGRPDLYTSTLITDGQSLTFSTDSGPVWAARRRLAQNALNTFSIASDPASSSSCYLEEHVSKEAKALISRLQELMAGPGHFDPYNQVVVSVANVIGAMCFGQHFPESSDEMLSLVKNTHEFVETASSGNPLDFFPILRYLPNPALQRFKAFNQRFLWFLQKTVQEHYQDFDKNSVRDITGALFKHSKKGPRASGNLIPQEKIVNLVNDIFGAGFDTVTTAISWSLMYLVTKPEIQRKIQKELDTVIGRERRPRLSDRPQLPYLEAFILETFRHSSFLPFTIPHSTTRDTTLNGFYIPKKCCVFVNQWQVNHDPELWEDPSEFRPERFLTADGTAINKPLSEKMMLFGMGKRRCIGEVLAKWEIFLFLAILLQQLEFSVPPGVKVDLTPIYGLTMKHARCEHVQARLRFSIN

[9] = Cmax in healthy human at 50 mg, po; type: ADME, organism-based; set-up: dose 50 mg, route oral; settings: in vivo
[10] = test system: CYP3A4; assay: Upregulation of CYP3A4 mRNA expression in human hepatocytes at 0.3 to 30 uM treated every 24 hrs for 2 days measured on day 5 relative to control; type: ADME, cell-based, Hepatocyte; settings: read-out: FC
[11] = target: T4, Cytochrome P450 2C8 (Homo sapiens, UniProt P10632); assay: Biphasic inhibition of CYP2C8 in human liver microsomes assessed as montelukast 36-hydroxylation after 20 mins by LC-MS/MS analysis; type: ADME
T4 sequence (P10632 whole entry): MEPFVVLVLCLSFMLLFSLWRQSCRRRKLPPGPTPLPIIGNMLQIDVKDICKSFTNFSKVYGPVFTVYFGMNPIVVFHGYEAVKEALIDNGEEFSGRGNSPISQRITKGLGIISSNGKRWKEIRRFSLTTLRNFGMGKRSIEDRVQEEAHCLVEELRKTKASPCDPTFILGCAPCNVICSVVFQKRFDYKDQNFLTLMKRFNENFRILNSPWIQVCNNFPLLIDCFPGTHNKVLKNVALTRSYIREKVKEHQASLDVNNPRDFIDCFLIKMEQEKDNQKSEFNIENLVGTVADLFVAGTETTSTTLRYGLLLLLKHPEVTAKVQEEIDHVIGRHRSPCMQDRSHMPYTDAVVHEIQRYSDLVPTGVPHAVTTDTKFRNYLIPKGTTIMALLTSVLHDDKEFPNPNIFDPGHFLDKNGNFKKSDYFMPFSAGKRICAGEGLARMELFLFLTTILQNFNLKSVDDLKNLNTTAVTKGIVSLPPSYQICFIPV

[12] = target: T2, Cytochrome P450 3A4; assay: Inhibition of CYP3A4 in human liver microsomes using midazolam as substrate after 5 to 30 mins by LC-MS/MS analysis; type: ADME
[13] = target: UDP-glucuronosyltransferase 1A8 (Homo sapiens, UniProt Q9HAW9); assay: Drug metabolism assessed as human recombinant UGT1A8-mediated compound formation treated with AMG 853 at 10 uM after 30 mins by LC-MS/MS analysis; type: ADME; settings: recombinant enzyme, 0.5 h
Chain of UDP-glucuronosyltransferase 1A8 (Q9HAW9 whole entry): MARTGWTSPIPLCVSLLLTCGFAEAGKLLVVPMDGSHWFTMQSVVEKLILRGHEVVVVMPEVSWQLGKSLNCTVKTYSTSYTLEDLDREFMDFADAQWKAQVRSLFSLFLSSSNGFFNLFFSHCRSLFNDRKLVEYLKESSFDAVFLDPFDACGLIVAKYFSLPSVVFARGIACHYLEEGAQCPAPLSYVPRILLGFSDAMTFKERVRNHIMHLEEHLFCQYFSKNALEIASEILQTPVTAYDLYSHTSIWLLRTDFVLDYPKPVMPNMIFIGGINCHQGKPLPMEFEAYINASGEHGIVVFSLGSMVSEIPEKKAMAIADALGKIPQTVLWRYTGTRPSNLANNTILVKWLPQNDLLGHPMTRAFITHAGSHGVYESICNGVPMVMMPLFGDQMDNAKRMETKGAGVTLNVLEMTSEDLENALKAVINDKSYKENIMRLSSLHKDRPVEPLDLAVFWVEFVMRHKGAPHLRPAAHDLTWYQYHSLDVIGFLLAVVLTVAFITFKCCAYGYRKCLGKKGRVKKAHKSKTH

Chain of Cytochrome P450 2C9 (P11712 whole entry): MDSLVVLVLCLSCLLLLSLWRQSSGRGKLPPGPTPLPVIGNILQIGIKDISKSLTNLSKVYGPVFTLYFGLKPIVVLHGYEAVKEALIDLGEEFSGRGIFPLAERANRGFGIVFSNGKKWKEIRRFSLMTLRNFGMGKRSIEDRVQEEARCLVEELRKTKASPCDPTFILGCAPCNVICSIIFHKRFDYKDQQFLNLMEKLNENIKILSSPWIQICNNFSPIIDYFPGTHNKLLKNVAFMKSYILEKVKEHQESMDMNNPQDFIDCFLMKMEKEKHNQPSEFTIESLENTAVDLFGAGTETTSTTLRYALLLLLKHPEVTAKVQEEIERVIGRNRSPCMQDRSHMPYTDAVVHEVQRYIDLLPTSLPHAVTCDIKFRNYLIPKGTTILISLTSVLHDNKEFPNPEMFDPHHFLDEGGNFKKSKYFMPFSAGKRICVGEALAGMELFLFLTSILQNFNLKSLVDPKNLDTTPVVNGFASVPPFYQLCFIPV
T2 sequence (P08684 whole entry): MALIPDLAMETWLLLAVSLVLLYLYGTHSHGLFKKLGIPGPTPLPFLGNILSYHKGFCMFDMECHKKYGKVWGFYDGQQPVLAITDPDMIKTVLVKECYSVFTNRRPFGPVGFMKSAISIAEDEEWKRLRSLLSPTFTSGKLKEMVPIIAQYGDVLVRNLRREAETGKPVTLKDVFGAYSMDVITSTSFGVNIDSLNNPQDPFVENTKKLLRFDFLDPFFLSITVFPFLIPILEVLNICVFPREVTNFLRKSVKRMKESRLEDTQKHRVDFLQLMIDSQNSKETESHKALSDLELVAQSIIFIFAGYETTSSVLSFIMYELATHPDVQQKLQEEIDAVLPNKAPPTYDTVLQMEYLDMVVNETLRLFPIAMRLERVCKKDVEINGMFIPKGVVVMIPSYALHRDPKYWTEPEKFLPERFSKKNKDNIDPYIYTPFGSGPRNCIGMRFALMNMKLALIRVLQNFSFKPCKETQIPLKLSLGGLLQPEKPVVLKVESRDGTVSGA
Chain of Cytochrome P450 2D6 (P10635 whole entry): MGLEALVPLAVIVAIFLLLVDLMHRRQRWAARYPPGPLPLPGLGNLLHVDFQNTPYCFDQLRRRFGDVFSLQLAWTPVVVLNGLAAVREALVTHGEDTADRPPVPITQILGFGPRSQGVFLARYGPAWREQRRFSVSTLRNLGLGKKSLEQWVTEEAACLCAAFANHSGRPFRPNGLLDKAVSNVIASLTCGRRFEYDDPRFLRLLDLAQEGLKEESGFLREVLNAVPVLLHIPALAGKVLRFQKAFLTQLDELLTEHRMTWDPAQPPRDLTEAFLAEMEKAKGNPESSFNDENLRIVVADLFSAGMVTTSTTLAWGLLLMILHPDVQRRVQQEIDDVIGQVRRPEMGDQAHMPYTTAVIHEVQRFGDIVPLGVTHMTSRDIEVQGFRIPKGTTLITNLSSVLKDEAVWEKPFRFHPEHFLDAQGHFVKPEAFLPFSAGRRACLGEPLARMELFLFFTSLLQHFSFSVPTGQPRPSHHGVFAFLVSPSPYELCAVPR
Chain of Cytochrome P450 2C19 (P33261 whole entry): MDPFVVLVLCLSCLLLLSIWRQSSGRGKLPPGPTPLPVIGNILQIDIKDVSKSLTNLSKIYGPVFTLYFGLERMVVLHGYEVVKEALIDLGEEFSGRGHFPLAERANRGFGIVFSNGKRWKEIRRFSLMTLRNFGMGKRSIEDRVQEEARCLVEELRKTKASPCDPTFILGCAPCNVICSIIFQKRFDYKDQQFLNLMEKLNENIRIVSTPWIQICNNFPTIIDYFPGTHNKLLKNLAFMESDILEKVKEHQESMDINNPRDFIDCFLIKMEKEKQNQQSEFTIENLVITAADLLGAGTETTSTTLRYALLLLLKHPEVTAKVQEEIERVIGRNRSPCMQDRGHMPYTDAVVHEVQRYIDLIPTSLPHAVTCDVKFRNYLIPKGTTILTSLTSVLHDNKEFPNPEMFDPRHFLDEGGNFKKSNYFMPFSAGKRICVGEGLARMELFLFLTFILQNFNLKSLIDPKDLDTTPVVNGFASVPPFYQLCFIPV
Chain of Cytochrome P450 2E1 (P05181 whole entry): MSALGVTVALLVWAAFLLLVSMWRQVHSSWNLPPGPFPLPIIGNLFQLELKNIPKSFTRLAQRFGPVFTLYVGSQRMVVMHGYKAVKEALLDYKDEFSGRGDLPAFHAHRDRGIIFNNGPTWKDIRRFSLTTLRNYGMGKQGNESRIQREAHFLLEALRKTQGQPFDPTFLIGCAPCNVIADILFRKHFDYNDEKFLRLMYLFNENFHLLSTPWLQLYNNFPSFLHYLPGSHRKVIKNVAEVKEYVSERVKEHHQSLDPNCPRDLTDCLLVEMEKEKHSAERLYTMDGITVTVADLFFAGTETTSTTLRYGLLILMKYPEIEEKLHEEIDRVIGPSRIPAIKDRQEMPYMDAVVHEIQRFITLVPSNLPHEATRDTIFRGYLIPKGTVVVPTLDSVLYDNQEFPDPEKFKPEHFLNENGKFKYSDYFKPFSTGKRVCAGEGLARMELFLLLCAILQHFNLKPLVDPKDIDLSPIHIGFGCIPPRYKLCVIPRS

Ki [1] [µM] | Ki [2] [µM] | Ki [3] [µM] | Ki [4] [µM] | Ki [5] [µM] | Ki [7] [µM] | Ki [8] [µM] | Ki [11] [µM] | Ki [12] [µM] | SMILES | other results
> 30 | > 30 | > 30 | > 30 | > 30 | > 30 | > 30 | 1.8 | > 30 | CC(C)(C)NC(=O)c1ccc(Oc2cc(F)c(CC(=O)O)cc2Cl)c(NS(=O)(=O)c2ccc(C3CC3)cc2Cl)c1 [VIDUPIPRANT] | IC50 [1]: ≥ 30 µM; IC50 [2]: ≥ 30 µM; IC50 [3]: ≥ 30 µM; IC50 [4]: ≥ 30 µM; IC50 [5]: ≥ 30 µM; fold induction at 48 h, up to 30 µM [6]: 1.7; IC50 [7]: ≥ 30 µM; IC50 [8]: ≥ 30 µM; Cmax [9]: 227 ng/mL; fold induction at 48 h, up to 30 µM [10]: 1.7; IC50 [12]: ≥ 30 µM
> 30 | > 30 | > 30 | > 30 | > 30 | > 30 | > 30 | 7.3 | > 30 | CC(C)(C)NC(=O)c1ccc(Oc2cc(F)c(CC(=O)O[C@@H]3O[C@H](C(=O)O)[C@@H](O)[C@H](O)[C@H]3O)cc2Cl)c(NS(=O)(=O)c2ccc(C3CC3)cc2Cl)c1 | Drug metabolism [13]: metabolite_detected
